The supplement of paper PMC11451515

Test system: P12-Ichikawa
Assay: cell viability relative to DMSO control; higher = less cytotoxic
Conditions: 48 h
How it was run: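 Library compounds in DMSO were pin-dosed in an 11-point threefold series (47 μM to 0.79 nM) onto leukemia cells in 1536-well plates (5 μl). Plates held 500 cells/well of NOMO1 or SEM or 1000 cells/well of P12-Ichikawa, each adapted for at least four passages in each medium. Luminescence was read with CellTiter-Glo One after 48 h at 37°C. Viability means the per-plate percentage relative to DMSO wells, using cell-free wells as background.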

[1] = HPLM + 10% dialyzed FBS, 0.000781 µM
[2] = HPLM + 10% dialyzed FBS, 0.00234 µM
[3] = HPLM + 10% dialyzed FBS, 0.00702 µM
[4] = HPLM + 10% dialyzed FBS, 0.0211 µM
[5] = HPLM + 10% dialyzed FBS, 0.0632 µM
[6] = HPLM + 10% dialyzed FBS, 0.19 µM
[7] = HPLM + 10% dialyzed FBS, 0.569 µM
[8] = HPLM + 10% dialyzed FBS, 1.71 µM
[9] = HPLM + 10% dialyzed FBS, 5.12 µM
[10] = HPLM + 10% dialyzed FBS, 15.4 µM
[11] = HPLM + 10% dialyzed FBS, 46.1 µM
[12] = RPMI 5 mM glucose + 10% dialyzed FBS, 0.000781 µM
[13] = RPMI 5 mM glucose + 10% dialyzed FBS, 0.00234 µM
[14] = RPMI 5 mM glucose + 10% dialyzed FBS, 0.00702 µM
[15] = RPMI 5 mM glucose + 10% dialyzed FBS, 0.0211 µM
[16] = RPMI 5 mM glucose + 10% dialyzed FBS, 0.0632 µM
[17] = RPMI 5 mM glucose + 10% dialyzed FBS, 0.19 µM
[18] = RPMI 5 mM glucose + 10% dialyzed FBS, 0.569 µM
[19] = RPMI 5 mM glucose + 10% dialyzed FBS, 1.71 µM
[20] = RPMI 5 mM glucose + 10% dialyzed FBS, 5.12 µM
[21] = RPMI 5 mM glucose + 10% dialyzed FBS, 15.4 µM
[22] = RPMI 5 mM glucose + 10% dialyzed FBS, 46.1 µM

With `CCCCc1oc2ccccc2c1C(=O)c1cc(I)c(OCCN(CC)CC)c(I)c1` the cell viability [1] was 114%, the cell viability [2] was 114% and the cell viability [3] was 113%. For the same compound, the cell viability [4] was 109%, the cell viability [5] was 115% and the cell viability [6] was 102%. The cell viability [7] was 110%, the cell viability [8] was 104% and the cell viability [9] was 104%. For the same compound, the cell viability [10] was 104%, the cell viability [11] was 91.1% and the cell viability [12] was 106%. It also gave a cell viability [13] of 114%, a cell viability [14] of 115% and a cell viability [15] of 114%. The cell viability [16] was 111%, the cell viability [17] was 107% and the cell viability [18] was 116%. It also gave a cell viability [19] of 106%, a cell viability [20] of 103% and a cell viability [21] of 103%. For the same compound, the cell viability [22] was 94.5%.

`CCCCc1ccc(N[S+](=O)([O-])c2ccc(C)c(C(=O)N3CCN(c4cccc(C)c4C)CC3)c2)cc1` gave a cell viability [1] of 125%, a cell viability [2] of 125% and a cell viability [3] of 122%. It also gave a cell viability [4] of 96.6%, a cell viability [5] of 118% and a cell viability [6] of 125%. It also gave a cell viability [7] of 121%, a cell viability [8] of 122% and a cell viability [9] of 120%. The cell viability [10] was 105% and the cell viability [11] was 106%.

Work on `CC(C)C1=N[N](C\2=C1C(=O)N\C(=N2)CC3=CC=C(OCCO)C=C3)C4=C(Cl)C=CC=C4Cl` yielded a cell viability [1] of 116%, a cell viability [2] of 116% and a cell viability [3] of 109%. It also gave a cell viability [4] of 108%, a cell viability [5] of 107% and a cell viability [6] of 44%. The cell viability [7] was 10.7%, the cell viability [8] was 5.9% and the cell viability [9] was 6.83%. The cell viability [10] was 6.62%, the cell viability [11] was 5.21% and the cell viability [12] was 118%. It also gave a cell viability [13] of 129%, a cell viability [14] of 117% and a cell viability [15] of 124%. For the same compound, the cell viability [16] was 127%, the cell viability [17] was 31.8% and the cell viability [18] was 10.9%. It also gave a cell viability [19] of 5.95%, a cell viability [20] of 6.23% and a cell viability [21] of 6.55%. It also gave a cell viability [22] of 3.77%.

In the case of `COc1ccc2c(c1)CC[C@@H](CN(C)CC(=O)O)[C@H]2c1ccccc1`, the cell viability [12] is reported as 116%, the cell viability [13] is reported as 122% and the cell viability [14] is reported as 129%. It also gave a cell viability [15] of 119%, a cell viability [16] of 119% and a cell viability [17] of 116%. For the same compound, the cell viability [18] was 119%, the cell viability [19] was 105% and the cell viability [20] was 54.9%. For the same compound, the cell viability [21] was 28.8% and the cell viability [22] was 29.1%.

`CCCC[N+]1(C)[C@@H]2CC(OC(=O)[C@H](CO)c3ccccc3)C[C@H]1[C@@H]1O[C@@H]12` (some centres not stated) showed a cell viability [1] of 114%, a cell viability [2] of 121% and a cell viability [3] of 123%. For the same compound, the cell viability [4] was 118%, the cell viability [5] was 116% and the cell viability [6] was 128%. It also gave a cell viability [7] of 118%, a cell viability [8] of 95.2% and a cell viability [9] of 104%. The cell viability [10] was 103% and the cell viability [11] was 110%.
